Assay results as given in patent US9346815B2, “5-chloro-2-difluoromethoxyphenyl pyrazolopyrimidine compounds, compositions and methods of use thereof” (Genentech, Inc., priority 2014, dated 2016).

How the values were obtained:
[1] = target: isolated recombinant JAK1 kinase domain (Homo sapiens (Human), UniProt P23458); test: JAK1 enzyme assay (Caliper LabChip, peptide phosphorylation); type: biochemical; details: isolated recombinant JAK1 kinase domain, 25 μM ATP
[2] = Clearance assay: mouse intravenous (IV) clearance; type: in vivo; details: female BALB/c mice; for IV Mouse CL, % of liver blood flow: clearance as % of mouse liver blood flow; for clearance: mouse, read-out: IV Mouse CL
Source text: In certain instances high systemic clearance of a drug substance may be of benefit. For example, in the treatment of pulmonary diseases it may be beneficial to have high drug concentrations in the lung, with lower concentrations in the bloodstream or peripheral organs. In such cases, it may be advantageous to administer a drug substance with high systemic clearance via the inhaled delivery route. This approach may maximize pharmacologic activity of the drug substance in the lung while minimizing the possibility of on-target toxicity elsewhere in the body. The functional groups appended to the 5-chloro-2-difluoromethoxyphenyl pyrazolopyrimidine scaffold affect systemic clearance.
Female BALB/c mice were obtained from Charles River Labs (Hollister, Calif. USA). Twelve animals were given a single IV dose of 1 mg/kg of compounds via the tail vein. A representative dose solution was prepared as follows: the compound was dissolved in a mixture of 5% dimethylsulfoxide (DMSO), 35% polyethylene glycol (PEG 400), and 60% water (v/v/v), respectively, and administered at a dosing volume of 5 mL/kg. Mice weighed approximately 20-25 g at the start of the study. After intravenous administration of compounds, each animal was bled twice via retro-orbital and cardiac puncture. PK time points were collected at 2 min, 5 min, 15 min, 30 min, 1 hr, 2 hr, 4 hr, and 8 hr post-dose. Plasma samples were stored at approximately −80° C. until thawed for LC-MS/MS analysis. PK data analysis was performed on mean plasma concentration-time data and PK parameters were determined by non compartmental methods using WinNonlin® Enterprise, version 5.2.1 (Pharsight Corporation; Mountain View, Calif.).

[3] = target: isolated recombinant JAK2 kinase domain (Homo sapiens (Human), UniProt O60674); test: JAK2 enzyme assay (Caliper LabChip, peptide phosphorylation); type: biochemical; details: 25 μM ATP
[4] = system: JAK1-dependent STAT6 phosphorylation downstream of IL-13 stimulation in BEAS-2B human bronchial epithelial cells; test: JAK1 pathway assay in BEAS-2B cells (IL-13-pSTAT6, MSD); type: cell-based; details: read-out: IL13-pSTAT6 EC50 (uM)_BEAS-2B
Procedure, shortened: (§1)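 Compound preincubation lasted 1 hr for BEAS-2B cells in complete growth medium and 30 min for GM-CSF-starved TF-1 cells in serum-free medium. EC50 values were determined.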

[5] = system: JAK1-dependent STAT6 phosphorylation downstream of IL-13 stimulation in TF-1 human erythroleukemia cells; test: JAK1 pathway assay in TF-1 cells (IL-13-pSTAT6, MSD); type: cell-based; details: Homo sapiens, TF-1, TF-1 cells, read-out: IL13-pSTAT6 EC50_TF-1
Procedure, shortened: as §1

[6] = plasma, single IV dose of 1 mg/kg via the tail vein

isolated recombinant JAK1 kinase domain, sequence (P23458 875-1153): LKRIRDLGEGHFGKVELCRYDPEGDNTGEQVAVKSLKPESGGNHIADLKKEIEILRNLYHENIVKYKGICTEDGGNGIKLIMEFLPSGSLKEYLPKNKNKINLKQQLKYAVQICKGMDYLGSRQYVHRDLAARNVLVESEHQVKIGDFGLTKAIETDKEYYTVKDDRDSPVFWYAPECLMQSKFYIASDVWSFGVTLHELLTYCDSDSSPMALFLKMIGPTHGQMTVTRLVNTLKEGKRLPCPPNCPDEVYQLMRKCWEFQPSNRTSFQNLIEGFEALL
isolated recombinant JAK2 kinase domain, sequence (O60674 849-1124): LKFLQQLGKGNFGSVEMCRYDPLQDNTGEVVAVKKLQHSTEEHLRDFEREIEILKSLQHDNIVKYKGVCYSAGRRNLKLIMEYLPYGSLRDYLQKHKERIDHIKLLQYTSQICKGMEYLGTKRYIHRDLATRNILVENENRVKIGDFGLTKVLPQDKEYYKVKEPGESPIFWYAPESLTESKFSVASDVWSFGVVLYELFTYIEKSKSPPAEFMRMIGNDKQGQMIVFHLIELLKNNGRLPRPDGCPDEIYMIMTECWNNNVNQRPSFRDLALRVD

Compound	Ki [1] [nM]	IV Mouse CL, % of liver blood flow ([2]; single IV dose of 1 mg/kg) [%]	clearance [2, 6] [mL/min/kg]	Ki [3] [nM]	EC50 [4] [µM]	EC50 [5] [nM]	mouse IV clearance as % of mouse liver blood flow ([2]; single IV dose of 1 mg/kg) [%]	mouse intravenous (IV) clearance value ([2]; single IV dose of 1 mg/kg via the tail vein, plasma) [mL/min/kg]
CSCCN1CCN(C(=O)Cn2cc(NC(=O)c3cnn4cccnc34)c(-c3cc(Cl)ccc3OC(F)F)n2)CC1 [Example 372, N-[3-[5-chloro-2-(difluoromethoxy)phenyl]-1-(2-[4-[2-(methylsulfanyl)ethyl]piperazin-1-yl]-2-oxoethyl)-1H-pyrazol-4-yl]pyrazolo[1,5-a]pyrimidine-3-carboxamide]	0.25	>100	93	0.51	0.0197			
O=C(Nc1cn(CC(=O)N2CC=CCC2)nc1-c1cc(Cl)ccc1OC(F)F)c1cnn2cccnc12 [Example 284, N-[3-[5-chloro-2-(difluoromethoxy)phenyl]-1-[2-(3,6-dihydro-2H-pyridin-1-yl)-2-oxo-ethyl]pyrazol-4-yl]pyrazolo[1,5-a]pyrimidine-3-carboxamide]	0.15	>100	219	0.37	0.0125	1.6		
CC(C)(O)Cn1cc(NC(=O)c2cnn3cccnc23)c(-c2cc(Cl)ccc2OC(F)F)n1 [i]							6	5.3
Nc1nn2cccnc2c1C(=O)Nc1cn(C2CCNCC2)nc1-c1cc(Cl)ccc1OC(F)F [Example 2, 2-Amino-pyrazolo[1,5-a]pyrimidine-3-carboxylic acid [3-(5-chloro-2-difluoromethoxy-phenyl)-1-piperidin-4-yl-1H-pyrazol-4-yl]-amide]	0.72	>100	580	0.19	0.0195	5.2		
CCOC(=O)CN1CCN(C(=O)Cn2cc(NC(=O)c3cnn4cccnc34)c(-c3cc(Cl)ccc3OC(F)F)n2)CC1 [Example 397, ethyl 2-[4-(2-[3-[5-chloro-2-(difluoromethoxy)phenyl]-4-[pyrazolo[1,5-a]pyrimidine-3-amido]-1H-pyrazol-1-yl]acetyl)piperazin-1-yl]acetate]		>100	141	0.77	0.027			
CN(CC(F)(F)c1ccccc1)C1CCN(C(=O)Cn2cc(NC(=O)c3cnn4cccnc34)c(-c3cc(Cl)ccc3OC(F)F)n2)CC1 [Example 102, N-[3-[5-chloro-2-(difluoromethoxy)phenyl]-1-[2-[4-[(2,2-difluoro-2-phenyl-ethyl)-methyl-amino]-1-piperidyl]-2-oxo-ethyl]pyrazol-4-yl]pyrazolo[1,5-a]pyrimidine-3-carboxamide]	0.62	>100	140	1.1	0.0347	8.5		
CC(C)(C#N)CNC1CCN(C(=O)Cn2cc(NC(=O)c3cnn4cccnc34)c(-c3cc(Cl)ccc3OC(F)F)n2)CC1 [Example 466, N-(3-(5-chloro-2-(difluoromethoxy)phenyl)-1-(2-(4-(2-cyano-2-methyl-propylamino)piperidin-1-yl)-2-oxoethyl)-1H-pyrazol-4-yl)pyrazolo[1,5-a]pyrimidine-3-carboxamide]	0.27	80	72	0.74	0.014			
CN(CC(F)(F)F)C1CCN(c2nc(-c3cc(Cl)ccc3OC(F)F)c(NC(=O)c3cnn4cccnc34)s2)CC1 [Example 198, N-[4-[5-chloro-2-(difluoromethoxy)phenyl]-2-[4-[methyl(2,2,2-trifluoroethyl)amino]-1-piperidyl]thiazol-5-yl]pyrazolo[1,5-a]pyrimidine-3-carboxamide]	2.72	>100	326	2.17		29.1		
O=C(Nc1cn(CC(=O)N2CCC(O)CC2)nc1-c1cc(Cl)ccc1OC(F)F)c1cnn2cccnc12 [Example 278, N-[3-[5-chloro-2-(difluoromethoxy)phenyl]-1-[2-(4-hydroxy-1-piperidyl)-2-oxo-ethyl]pyrazol-4-yl]pyrazolo[1,5-a]pyrimidine-3-carboxamide]	0.24	>100	133	0.63	0.005			
CN(C)C1CCN(C(=O)Cn2cc(NC(=O)c3cnn4cccnc34)c(-c3cc(Cl)ccc3OC(F)F)n2)CC1 [Example 67, N-[3-[5-chloro-2-(difluoromethoxy)phenyl]-1-[2-[4-(dimethylamino)-1-piperidyl]-2-oxo-ethyl]pyrazol-4-yl]pyrazolo[1,5-a]pyrimidine-3-carboxamide]	0.89	>100	205		0.0715	14.6		
N#CC1(CNC2CCN(C(=O)Cn3cc(NC(=O)c4cnn5cccnc45)c(-c4cc(Cl)ccc4OC(F)F)n3)CC2)CC1 [Example 468, N-(3-(5-chloro-2-(difluoromethoxy)phenyl)-1-(2-(4-(((1-cyanocyclopropyl)methyl)amino)piperidin-1-yl)-2-oxoethyl)-1H-pyrazol-4-yl)pyrazolo[1,5-a]pyrimidine-3-carboxamide]	0.36	>100	140	0.92	0.006			
O=C(Nc1cn(CC(=O)N2CCC(CN3CCOCC3)CC2)nc1-c1cc(Cl)ccc1OC(F)F)c1cnn2cccnc12 [Example 348, N-[3-[5-chloro-2-(difluoromethoxy)phenyl]-1-[2-[4-(morpholin-4-ylmethyl)piperidin-1-yl]-2-oxoethyl]-1H-pyrazol-4-yl]pyrazolo[1,5-a]pyrimidine-3-carboxamide]	0.4	>100	143	1.02	0.012			
O=C(Nc1cn(CC(=O)N2C[C@H]3CN(CC(F)(F)F)C[C@H]3C2)nc1-c1cc(Cl)ccc1OC(F)F)c1cnn2cccnc12 [Example 59, N-[1-[2-[(3aR,6aS)-2-(2,2,2-trifluoroethyl)-1,3,3a,4,6,6a-hexahydropyrrolo[3,4-c]pyrrol-5-yl]-2-oxo-ethyl]-3-[5-chloro-2-(difluoromethoxy)phenyl]pyrazol-4-yl]pyrazolo[1,5-a]pyrimidine-3-carboxamide]	0.5	43	39	0.8		3.7		
CN(C)CCOC(=O)C1CCN(C(=O)Cn2cc(NC(=O)c3cnn4cccnc34)c(-c3cc(Cl)ccc3OC(F)F)n2)CC1 [Example 338, 2-(dimethylamino)ethyl 1-(2-[3-[5-chloro-2-(difluoromethoxy)phenyl]-4-[pyrazolo[1,5-a]pyrimidine-3-amido]-1H-pyrazol-1-yl]acetyl)piperidine-4-carboxylate]	0.36	>100	> 200	1.16	0.0177			
O=C(Nc1cn(CCNCc2ccccc2)nc1-c1cc(Cl)ccc1OC(F)F)c1cnn2cccnc12 [Example 313, N-[1-[2-(benzylamino)ethyl]-3-[5-chloro-2-(difluoromethoxy)phenyl]-1H-pyrazol-4-yl]pyrazolo[1,5-a]pyrimidine-3-carboxamide]	0.21	57	51	0.21	0.0218			
CC1(O)CCN(C(=O)Cn2cc(NC(=O)c3cnn4cccnc34)c(-c3cc(Cl)ccc3OC(F)F)n2)CC1 [Example 280, N-[3-[5-chloro-2-(difluoromethoxy)phenyl]-1-[2-(4-hydroxy-4-methyl-1-piperidyl)-2-oxo-ethyl]pyrazol-4-yl]pyrazolo[1,5-a]pyrimidine-3-carboxamide]	0.39			0.81	0.0215	4.3		
CCOC(=O)CNCCn1cc(NC(=O)c2cnn3cccnc23)c(-c2cc(Cl)ccc2OC(F)F)n1 [Example 306, Ethyl 2-[(2-[3-[5-chloro-2-(difluoromethoxy)phenyl]-4-[pyrazolo[1,5-a]pyrimidine-3-amido]-1H-pyrazol-1-yl]ethyl)amino]acetate]	1.15			0.54	0.0659	6.2		
